Molecular target: T1, Protease-activated receptor 1 (PAR1) (Homo sapiens, UniProt P25116)
T1 construct: gene F2R; endogenous PAR1 in HT29 cells
T1 sequence (P25116 42-425): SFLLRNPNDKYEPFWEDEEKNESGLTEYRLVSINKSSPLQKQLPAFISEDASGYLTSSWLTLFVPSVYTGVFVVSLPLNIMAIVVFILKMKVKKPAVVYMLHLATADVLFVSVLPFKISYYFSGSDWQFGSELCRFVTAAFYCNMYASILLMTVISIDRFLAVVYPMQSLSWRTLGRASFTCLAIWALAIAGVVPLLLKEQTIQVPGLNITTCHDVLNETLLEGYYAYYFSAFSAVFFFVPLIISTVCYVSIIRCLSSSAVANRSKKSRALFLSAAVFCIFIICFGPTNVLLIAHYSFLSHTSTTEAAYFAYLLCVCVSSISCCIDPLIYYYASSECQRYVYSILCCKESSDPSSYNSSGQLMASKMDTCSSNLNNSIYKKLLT
Test: Fluo-4 intracellular calcium, potentiation of thrombin or PAR1-AP response; blocked by vorapaxar
Format: cell-based

In the case of C#C[C@]1(O)C=C[C@H]2[C@@H]3CCC4=CC(=O)CC[C@@H]4[C@H]3CC[C@@]21CC [gestodene], the EC50 is reported as 4.54 ± 0.27 µM.

Reference: paper PMC11310598, “Gestodene, a novel positive allosteric modulator of PAR1, enhances PAR1-mediated human platelet aggregation” (Frontiers in Pharmacology, 2024)
